Where two headings read alike, the source gives them in different places.
Legend:
Calu-1 = experiment: CellTiterGlo Cell Proliferation Assay, Calu-1; format: cell-based; conditions: Homo sapiens, KRas G12C, Lung, 96 hr
Procedure: A panel of tumor cell lines harboring KRas G12C or other KRas mutations are collected (Table 6). All cell lines are from ATCC or other sources indicated.
Typically cells are cultured in RPMI1640 or Dulbecco's modified Eagle's medium (DMEM, GIBCO) supplemented with 10% FBS (GIBCO, Invitrogen). For 2D culture cells (4×10^3/well) maintained in growth medium described above, are plated onto 96 well tissue culture plates Corning® Cat. 3603) a day before the treatment. For 3D culture 8000 cells/well are seeded onto 96 well ultra-low attachment tissue culture plates (Corning, #3474). The cells are treated compound for 96 hr, and then are analyzed for viability using the CellTiterGlo® Luminescent Cell Viability Assay® (Promega #G7572 for 2D and Promega #G9683 for 3D cultures) according to manufacturer's instructions and an EnVision™ plate reader. Nonlinear regression and sigmoidal dose-response curves are used to calculate the half maximal inhibitory concentration (IC50) with GraphPad Prism 4® software.

[1] = molecular target: T1, constitutive RAS GTPAse activity in H358 cells (Homo sapiens, UniProt P01116, G12C); experiment: H358 Cellular Active RAS GTPase ELISA; format: cell-based; conditions: 2 hr
T1 construct: host or cells: H358 human lung cancer cells
T1 sequence (P01116 1-188 isoform P01116-2 G12C): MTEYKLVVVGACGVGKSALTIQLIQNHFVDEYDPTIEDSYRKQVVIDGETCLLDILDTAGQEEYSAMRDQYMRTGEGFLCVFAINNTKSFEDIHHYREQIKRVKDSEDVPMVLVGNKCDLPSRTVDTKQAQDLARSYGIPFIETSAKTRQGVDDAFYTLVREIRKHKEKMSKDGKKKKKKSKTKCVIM
Excerpt: This assay is used to measure the ability of test compounds to inhibit constitutive RAS GTPAse activity in human lung cancer cells H358 (ATCC CRL-5807). The RAS GTPase ELISA kit (Active Motif Cat #52097) contains a 96-well plate pre-coated with glutathione in order to capture a kit-supplied GST-Raf-RBD protein. Activated RAS (GTP-bound) in cell extracts specifically bind to the Raf-RBD. Bound RAS is detected with a primary antibody that recognizes human KRas. A secondary antibody conjugated with HRP recognizes the primary antibody and a development solution provides a chemiluminescent readout.
H358 cells are plated at 80,000 cells/well in 90 μL serum free media (RPMI 1640, GIBCO) and incubated overnight at 37° C./5% CO2. The next morning, 10 μL of serially-diluted (3-fold) test compounds (500 μM top concentration) and 10 μL of controls (Maximum signal wells: 5% DMSO and Minimum signal wells: 500 μM LSN3429410 as an inhibitor) are added to the cell plate and incubated for 2 hr at 37° C./5% CO2. Complete Lysis/Binding Buffer is prepared containing Protease Inhibitor cocktail and GST-Raf-RBD and stored on ice. One hour before cell plate incubation is completed, 50 μL of GST-Raf-RBD is diluted in lysis/binding buffer, and buffer is added to the ELISA assay plate and which is incubated for 1 hour at 4° C. with gently rocking. After 2 hr, the cells are washed with 100 μL ice-cold PBS and lysed with 100 μL lysis/binding buffer. The cell plate is shaken for 10 min at RT. The cell plate is then centrifuged at 1500 rpm for 10 min at RT. During this time, 1× Wash Buffer is prepared at RT and then is used to wash (3×100 μL) the GST-Raf-RBD coated assay plate. After washing, 50 μL of cell lysate is added to the GST-Raf-RBD coated assay plate and incubated for 1 hour at RT with gentle shaking. During this incubation period, 1× Antibody Binding Buffer is prepared and brought to RT. The assay plate is washed 3×100 μL with 1× Wash Buffer and then 50 μL of Primary Antibody (diluted 1:500 in 1× Antibody Binding buffer) is added. The plate is incubated for 1 hour at RT. The assay plate is washed 3×100 μl with 1× Wash Buffer and then 50 μL of Secondary Antibody (diluted 1:5000 in 1× Antibody Binding buffer) is added and incubated for 1 hour at RT. The assay plate is washed 4×100 μL with 1× Wash buffer and then 50 μL of chemiluminescent working solution is added at RT. The assay plate is then read on an EnVision™ Plate Reader (Perkin Elmer) using a luminescence program.
The signal is converted to percent inhibition using the following equation: % Inhibition=100−[(Test Compound Signal−Median Minimum Signal)/(Median Maximum Signal−Median Minimum Signal)×100]. The Maximum signal is a control well without inhibitor.

IC50 (Calu-1; read-out: IC50 (μM) in 2 D cell proliferation): 0.024 µM | IC50 (Calu-1; read-out: IC50 (μM) in 3 D spheroid cell proliferation): 0.001 µM | IC50 ([1]; read-out: RAS-GTP): 37.1 nM | IC50 ([1]; read-out: relative IC50): 37 nM
Compound: C=CC(=O)N1CCN(c2ncnc3c(F)c(-c4ccc(F)c5sc(N)nc45)c(Cl)cc23)CC1 [Example 1, 1-{4-[7-(2-Amino-7-fluoro-1,3-benzothiazol-4-yl)-6-chloro-8-fluoroquinazolin-4-yl]piperazin-1-yl}prop-2-en-1-one]
